Measurements published in patent US8975398B2, “NAMPT inhibitors” (AbbVie Inc., priority 2012, dated 2015).

What was measured:
[1] = target: NAMPT (human, recombinant, C-terminally His-tagged) (Homo sapiens, UniProt P43490); experiment: Time-Resolved Fluorescence Resonance Energy Transfer (TR-FRET) Binding Assay of NAMPT; details: 6.8 nM NAMPT, 200 nM probe, equilibrated 3 hours, absence of substrates
Outline: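 Recombinant C-terminally His-tagged human NAMPT (6.8 nM) incubated 3 h at room temperature with 200 nM Oregon Green 488–labelled nicotinamide-competitive probe and 1 nM Tb-anti-His antibody in HEPES pH 7.5, 2% DMSO. TR-FRET ratio Em520/Em495 normalized to controls; IC50 from four-parameter logistic fit.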

[2] = target: NAMPT (Homo sapiens, UniProt P43490); experiment: Time-Resolved Fluorescence Resonance Energy Transfer (TR-FRET) Binding Assay of NAMPT with PRPP; details: 2 nM NAMPT, 2 nM probe, 200 uM PRPP and 2.5 mM ATP, equilibrated 16 hours
Outline: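 Final mix: 2 nM NAMPT, 2 nM probe, 1 nM Tb-anti-His antibody, 200 uM PRPP, 2.5 mM ATP, 2% DMSO in 1× assay buffer. Equilibrated 16 hours before TR-FRET read, allowing possible enzymatic modification of compounds.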

Sequence of NAMPT (human, recombinant, C-terminally His-tagged) (P43490 whole entry): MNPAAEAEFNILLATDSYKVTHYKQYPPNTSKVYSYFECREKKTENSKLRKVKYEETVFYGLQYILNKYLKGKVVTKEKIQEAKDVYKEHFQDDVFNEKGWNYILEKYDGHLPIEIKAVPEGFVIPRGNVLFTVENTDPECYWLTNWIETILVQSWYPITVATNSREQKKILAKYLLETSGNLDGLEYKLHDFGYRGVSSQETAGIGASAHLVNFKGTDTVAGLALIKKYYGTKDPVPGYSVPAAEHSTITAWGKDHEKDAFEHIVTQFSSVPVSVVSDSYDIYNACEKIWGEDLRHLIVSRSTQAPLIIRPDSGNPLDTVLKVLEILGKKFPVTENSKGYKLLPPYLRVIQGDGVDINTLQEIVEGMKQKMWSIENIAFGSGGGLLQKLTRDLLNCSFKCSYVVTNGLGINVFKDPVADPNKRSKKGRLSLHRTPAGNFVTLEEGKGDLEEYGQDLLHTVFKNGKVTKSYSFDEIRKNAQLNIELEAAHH
Sequence of NAMPT (P43490 whole entry): as above

SMILES | IC50 [1] [nM] | IC50 [2] [nM]
CSCCC(=O)N1CCC(c2ccc(NC(=O)C3CN(c4cccnn4)C3)cc2)CC1 [Example 337, N-(4-{1-[3-(methylsulfanyl)propanoyl]piperidin-4-yl}phenyl)-1-(pyridazin-3-yl)azetidine-3-carboxamide] | 50 | 0.522
CC(C)(C)OC(=O)N1CCC(Oc2ccc(NC(=O)[C@@H]3CCN(c4cccnc4)C3)cc2)CC1 [Example 9, tert-butyl 4-[4-({[(3R)-1-(pyridin-3-yl)pyrrolidin-3-yl]carbonyl}amino)phenoxy]piperidine-1-carboxylate] | 8620 | 17.2
O=C(Nc1ccc(OC2CCN(C(=O)c3ccsc3)CC2)cc1)C1CN(c2cccnn2)C1 [Example 223, 1-(pyridazin-3-yl)-N-(4-{[1-(thiophen-3-ylcarbonyl)piperidin-4-yl]oxy}phenyl)azetidine-3-carboxamide] | 150 | 0.959
Cc1ncccc1N1CC(C(=O)Nc2ccc(C3CCN(C(=O)c4ccoc4)CC3)cc2)C1 [Example 165, N-{4-[1-(furan-3-ylcarbonyl)piperidin-4-yl]phenyl}-1-(2-methylpyridin-3-yl)azetidine-3-carboxamide] | 35.2 | 68.3
O=C(Nc1ccc(C2CCN(C(=O)C3(c4ccccc4)CC3)CC2)cc1)C1CN(c2cccnn2)C1 [Example 381, N-(4-{1-[(1-phenylcyclopropyl)carbonyl]piperidin-4-yl}phenyl)-1-(pyridazin-3-yl)azetidine-3-carboxamide] | 15.1 | 1.13
O=C(Nc1ccc(C2CCN(CC3CCCCC3)CC2)cc1)C1CN(c2cccnc2)C1 [Example 86, N-{4-[1-(cyclohexylmethyl)piperidin-4-yl]phenyl}-1-(pyridin-3-yl)azetidine-3-carboxamide] | 1260 | 0.833
O=C(Nc1ccc(C2CCN(C(=O)c3ccc(C(F)(F)F)cc3)CC2)cc1)C1CN(c2cccnn2)C1 [Example 355, 1-(pyridazin-3-yl)-N-(4-{1-[4-(trifluoromethyl)benzoyl]piperidin-4-yl}phenyl)azetidine-3-carboxamide] | 115 | 0.986
Cc1ncccc1N1CC(C(=O)Nc2ccc(C3CCN(C(=O)c4cc(Cl)cc(Cl)c4)CC3)cc2)C1 [Example 154, N-{4-[1-(3,5-dichlorobenzoyl)piperidin-4-yl]phenyl}-1-(2-methylpyridin-3-yl)azetidine-3-carboxamide] | 524 | 16.1
Cn1cccc1C(=O)N1CCC(Oc2ccc(NC(=O)C3CN(c4cccnc4)C3)cc2)CC1 [Example 64, N-[4-({1-[(1-methyl-1H-pyrrol-2-yl)carbonyl]piperidin-4-yl}oxy)phenyl]-1-(pyridin-3-yl)azetidine-3-carboxamide] | 55.2 | 0.927
CC(C)(O)C(=O)N1CCC(c2ccc(NC(=O)C3CN(c4ccnnc4)C3)cc2)CC1 [Example 85, N-{4-[1-(2-hydroxy-2-methylpropanoyl)piperidin-4-yl]phenyl}-1-(pyridazin-4-yl)azetidine-3-carboxamide] | 32.2 | 17
O=C(Nc1ccc(OC2CN(C(=O)C3CCCC3)C2)cc1)C1CN(c2ccnnc2)C1 [Example 259, N-(4-{[1-(cyclopentylcarbonyl)azetidin-3-yl]oxy}phenyl)-1-(pyridazin-4-yl)azetidine-3-carboxamide] | 32.5 | 17.7
CC1(C(=O)N2CCC(c3ccc(NC(=O)C4CN(c5cccnc5)C4)cc3)CC2)CCCCC1 [Example 117, N-(4-{1-[(1-methylcyclohexyl)carbonyl]piperidin-4-yl}phenyl)-1-(pyridin-3-yl)azetidine-3-carboxamide] | 6.27 | 0.355
O=C(Nc1ccc(C2CCN(C(=O)C3CCCCC3)CC2)cc1)C1CN(c2cccnc2)C1 [Example 136, N-{4-[1-(cyclohexylcarbonyl)piperidin-4-yl]phenyl}-1-(pyridin-3-yl)azetidine-3-carboxamide] | 20.4 | 0.635
Cc1ncccc1N1CC(C(=O)Nc2ccc(C3CCN(C(=O)C4CCCCC4)CC3)cc2)C1 [Example 196, N-{4-[1-(cyclohexylcarbonyl)piperidin-4-yl]phenyl}-1-(2-methylpyridin-3-yl)azetidine-3-carboxamide] | 83.8 | 98.5
CCC(C)CC(=O)N1CCC(c2ccc(NC(=O)C3CN(c4cccnc4)C3)cc2)CC1 (centres unmarked) [Example 99, N-{4-[1-(3-methylpentanoyl)piperidin-4-yl]phenyl}-1-(pyridin-3-yl)azetidine-3-carboxamide] | 13.5 | 0.169
Cc1ncccc1N1CC(C(=O)Nc2ccc(C3CCN(C(=O)c4cccn4C)CC3)cc2)C1 [Example 188, 1-(2-methylpyridin-3-yl)-N-(4-{1-[(1-methyl-1H-pyrrol-2-yl)carbonyl]piperidin-4-yl}phenyl)azetidine-3-carboxamide] | 20.5 | 49.9
CC1CC1C(=O)N1CCC(c2ccc(NC(=O)C3CN(c4cccnc4)C3)cc2)CC1 (centres unmarked) [Example 102, N-(4-{1-[(2-methylcyclopropyl)carbonyl]piperidin-4-yl}phenyl)-1-(pyridin-3-yl)azetidine-3-carboxamide] | 8.84 | 0.21
CCC(C)(C)C(=O)N1CCC(Oc2ccc(NC(=O)C3CN(c4ccnnc4)C3)cc2)CC1 [Example 300, N-(4-{[1-(2,2-dimethylbutanoyl)piperidin-4-yl]oxy}phenyl)-1-(pyridazin-4-yl)azetidine-3-carboxamide] | 64.2 | 39.1
O=C(Nc1ccc(OC2CCN(C(=O)c3ccccn3)CC2)cc1)C1CN(c2cccnn2)C1 [Example 242, 1-(pyridazin-3-yl)-N-(4-{[1-(pyridin-2-ylcarbonyl)piperidin-4-yl]oxy}phenyl)azetidine-3-carboxamide] | 278 | 1.17

More lines, in order of falling IC50 [1], values ahead:

IC50 [1] [nM] | IC50 [2] [nM] | SMILES
664 | 161 | CCOCCC(=O)N1CCC(c2ccc(NC(=O)C3CN(c4cccnc4C)C3)cc2)CC1 [Example 175, N-{4-[1-(3-ethoxypropanoyl)piperidin-4-yl]phenyl}-1-(2-methylpyridin-3-yl)azetidine-3-carboxamide]
452 | 0.497 | CN(C)CCC(=O)N1CCC(Oc2ccc(NC(=O)C3CN(c4cccnc4)C3)cc2)CC1 [Example 67, N-(4-{[1-(N,N-dimethyl-beta-alanyl)piperidin-4-yl]oxy}phenyl)-1-(pyridin-3-yl)azetidine-3-carboxamide]
185 | 0.73 | O=C(Nc1ccc(OC2CCN(C(=O)c3ccc(F)c(F)c3)CC2)cc1)C1CN(c2cccnn2)C1 [Example 234, N-(4-{[1-(3,4-difluorobenzoyl)piperidin-4-yl]oxy}phenyl)-1-(pyridazin-3-yl)azetidine-3-carboxamide]
174 | 0.831 | O=C(Nc1ccc(OC2CCN(C(=O)c3cccc(F)c3)CC2)cc1)C1CN(c2cccnn2)C1 [Example 231, N-(4-{[1-(3-fluorobenzoyl)piperidin-4-yl]oxy}phenyl)-1-(pyridazin-3-yl)azetidine-3-carboxamide]
151 | 1.39 | O=C(Nc1ccc(OC2CCN(C(=O)c3cccc(OC(F)(F)F)c3)CC2)cc1)C1CN(c2cccnn2)C1 [Example 224, 1-(pyridazin-3-yl)-N-[4-({1-[3-(trifluoromethoxy)benzoyl]piperidin-4-yl}oxy)phenyl]azetidine-3-carboxamide]
84.5 | 103 | Cc1ncccc1N1CC(C(=O)Nc2ccc(C3CCN(C(=O)C(C)C(C)C)CC3)cc2)C1 (centres unmarked) [Example 198, N-{4-[1-(2,3-dimethylbutanoyl)piperidin-4-yl]phenyl}-1-(2-methylpyridin-3-yl)azetidine-3-carboxamide]
77.3 | 0.494 | O=C(Nc1ccc(C2CCN(C(=O)CC[N+](=O)[O-])CC2)cc1)C1CN(c2cccnn2)C1 [Example 336, N-{4-[1-(3-nitropropanoyl)piperidin-4-yl]phenyl}-1-(pyridazin-3-yl)azetidine-3-carboxamide]
40.6 | 58.1 | O=C(Nc1ccc(C2CCN(C(=O)CC3CCOCC3)CC2)cc1)C1CN(c2ccnnc2)C1 [Example 145, 1-(pyridazin-4-yl)-N-{4-[1-(tetrahydro-2H-pyran-4-ylacetyl)piperidin-4-yl]phenyl}azetidine-3-carboxamide]
40.2 | 0.362 | O=C(Nc1ccc(C2CCN(C(=O)CCC(F)(F)F)CC2)cc1)C1CN(c2cccnc2)C1 [Example 112, 1-(pyridin-3-yl)-N-{4-[1-(4,4,4-trifluorobutanoyl)piperidin-4-yl]phenyl}azetidine-3-carboxamide]
30.5 | 0.555 | O=C(Nc1ccc(C2CCN(C(=O)Cc3ccc(Cl)cc3)CC2)cc1)C1CN(c2cccnn2)C1 [Example 370, N-(4-{1-[(4-chlorophenyl)acetyl]piperidin-4-yl}phenyl)-1-(pyridazin-3-yl)azetidine-3-carboxamide]
27.9 | 0.606 | Cc1ccsc1C(=O)N1CCC(Oc2ccc(NC(=O)C3CN(c4cccnc4)C3)cc2)CC1 [Example 59, N-[4-({1-[(3-methylthiophen-2-yl)carbonyl]piperidin-4-yl}oxy)phenyl]-1-(pyridin-3-yl)azetidine-3-carboxamide]
18.3 | 0.626 | CC(C)C(C)C(=O)N1CCC(c2ccc(NC(=O)C3CN(c4cccnn4)C3)cc2)CC1 (centres unmarked) [Example 326, N-{4-[1-(2,3-dimethylbutanoyl)piperidin-4-yl]phenyl}-1-(pyridazin-3-yl)azetidine-3-carboxamide]
